Reference: paper PMC10508631, “Development of an antibody fused with an antimicrobial peptide targeting Pseudomonas aeruginosa: A new approach to prevent and treat bacterial infections” (PLOS Pathogens, 2023)
Converted amounts (≈) assume the structure as drawn. Where a SMILES comes first, the peptide text is derived from it.

Key:
[1] = system: 293T human cell line; assay: Mammalian cell cytotoxicity (CellTiter Glo); assay type: cell-based; details: for Cytotox CC50: 293T cells, 10,000 cells/well, three days, 37°C, CellTiter Glo luminescence
Procedure: On day one, cells from an established 293T human cell line were seeded onto 96-well flat-bottom white plates (10,000 293T cells/well). On day two, dilution plates were prepared by diluting compound in cell growth medium to two times the final starting concentration and then carrying out serial two-fold dilutions across the plate. Medium from the cell growth assay plates was then aspirated, and 50 μl from the compound dilution plates were transferred to the assay plates. Fifty microliters of fresh media were then added to all the wells. The plates were incubated at 37°C, 5% CO2 for three days. […]. Media from the assay plates was aspirated, and 100 μl of CellTiter Glo/growth media mix was added to all wells. After five minutes, luminescence was read, and% inhibition vs. compound concentration was plotted.

[2] = system: P. aeruginosa ATCC 39324; assay type: cell-based, Pseudomonas aeruginosa; details: for MIC P. aeruginosa ATCC 39324: CLSI microdilution, 2-fold dilutions, ~5 x 10^5 cells/ml, 37°C, 18 hours, MIC = at least 80% growth inhibition
Procedure: (§1) All plates were placed at 37°C overnight.

[3] = system: P. aeruginosa ATCC 27853; assay type: cell-based, Pseudomonas aeruginosa; details: for MIC P. aeruginosa ATCC 27853: CLSI microdilution, 2-fold dilutions, ~5 x 10^5 cells/ml, 37°C, 18 hours, MIC = lowest concentration inhibiting growth by at least 80%
Procedure: as §1

[4] = MIC in human serum; assay type: cell-based; details: ratio to MIC, strain not given, NA = no activity in human serum
[5] = system: E. coli ATCC 25922
Procedure: (§2) MICs and a killing assay were performed in this study. MICs were determined according to CLSI guidelines, using 2-fold serial compound dilutions in 96-well microtiter plates. Briefly, compounds were diluted in water across a mother plate and then 2 μl were stamped to assay plates—one plate for each strain to be tested. Bacterial strains were sub-cultured overnight on agar plates at 37°C. […] These concentrated cultures were diluted 1:200 in growth media to approximately 5 x 10^5 cells/ml. All assay plates received 100 μL diluted culture per well. All plates were placed at 37°C overnight. […] Wells at and above the MIC should appear devoid of growth when visualized.

[6] = system: S. aureus 29213
Procedure: as §2

[7] = system: red blood cells (defibrinated sheep's blood); assay: RBC hemolysis assay; assay type: cell-based; details: RBCs
Procedure: Test substances were diluted 2-fold in water across a 96-well polypropylene mother plate, leaving one no-compound control. Two microliters from each well were stamped onto a 96-well polystyrene assay plate. A red blood cell suspension was made by mixing 0.2% defibrinated sheep’s blood (Hardy Diagnostics DSB100) in PBS. All assay plates received 100 μl/well of the red blood cell suspension. Plates were then incubated at 37°C overnight.

[8] = system: P. aeruginosa; assay: Killing assay, strains not itemised; assay type: cell-based, Pseudomonas aeruginosa; details: P. aeruginosa ATCC strains; 1 x10^4 cells/ml in PBS + 1% BSA, 37°C, 90 minutes, CFU plating; EC50 = lowest concentration causing > 50% colony reduction
Procedure: (§3) Overnight plates were used to seed 30 ml cultures of growth media in 250 ml vented flasks. Cultures were grown aerobically at 37°C with shaking at 150 rpm. Growth was monitored at A600, and bacterial cells were harvested at mid-log growth. Ten milliliters of culture were pelleted at 4000 x g for 10 minutes and washed once with PBS + 1% BSA (PBSA) prior to resuspension in 2 ml of PBSA. The concentrated culture was used to seed 6 ml tubes of PBSA to an OD giving a concentration of 1 x 10^8 cells/ml. Cultures were diluted to 1 x10^4 cells/ml in PBSA. Test substances were diluted in PBSA, and 50 μL per concentration tested were loaded into a 96-well polypropylene microtiter plate. Fifty microliters of diluted culture were added to all test wells and all no-compound control wells. Plates were shaken and then incubated at 37°C for 90 minutes without shaking. Ten microliters from each assay well were plated onto agar plates and incubated at 37°C overnight. Percent killing was determined by the CFU for test wells vs. the CFU for no-compound control wells.

[9] = system: P. aeruginosa BAA-2110; assay: Killing assay; assay type: cell-based, Pseudomonas aeruginosa; details: third-generation cephalosporin-resistant strain; PBS + 1% BSA, 37°C, 90 minutes
Procedure: as §3

[10] = in vitro; details: human, normal human serum diluted in water
Procedure: The supernatant was warmed to 37°C in a water bath. Twenty microliters of each test article were placed in a 2.0 ml round bottom microfuge tube. Two milliliters of diluted NHS were added to each tube, which was immediately vortexed, followed by transfer of 200 μl to a fresh microfuge tube placed at 37°C in a rotating rack.
Twenty microliters of each test article at 10 mg/ml were placed in a 2.0 mL round-bottomed microfuge tube. […] The tubes were immediately vortexed, and 200 μl were transferred to a fresh microfuge tube with 40 μl of 1% trichloroacetic acid (TCA). Assay tubes were placed at 37°C in a rotating rack. […] Supernatant from each tube was collected and frozen at -20°C for analysis. Mass spectrometry was used to quantify the percentage of test substance still intact.

[11] = system: P. aeruginosa ATCC 27853 and P. aeruginosa ATCC 39324; details: two ATCC strains of P. aeruginosa, CLSI
Procedure: as §2

[12] = molar equivalent of the MIC, unit not given
[13] = CLSI microdilution, 2-fold dilutions, ~5 x 10^5 cells/ml, 37°C, 18 hours, MIC = at least 80% growth inhibition

SMILES	Cytotox CC50 [1]	MIC P. aeruginosa ATCC 39324 [2]	MIC P. aeruginosa ATCC 39324, molar equivalents (number in parentheses) [2, 12]	MIC P. aeruginosa ATCC 27853 [3]	MIC P. aeruginosa ATCC 27853, molar equivalents (number in parentheses) [3, 12]	Human Serum hsMIC/MIC [4]	MIC E. coli ATCC 25922 [5, 13]	MIC E. coli ATCC 25922, molar equivalents (number in parentheses) [5, 12]	MIC S. aureus 29213 [6, 13]	MIC S. aureus 29213, molar equivalents (number in parentheses) [6, 12]	cytotoxic activity ([1]; mammalian cells / 293T)	hemolytic activity [7]	cytotoxicity against 293T relative to the MIC [1]	EC50 in the killing assay [8]	EC50 killing assay, BAA-2110 [9]	half-life at 0.099 mg/ml [10]	MIC in an MIC assay [11]
CC(C)(O/N=C(\C(=O)N[C@@H]1C(=O)N2C(C(=O)[O-])=C(C[n+]3ccccc3)CS[C@H]12)c1csc(N)n1)C(=O)O [Ceftazadime, reference compound]	550 µg/mL	1 µg/mL (≈ 1.83 µM)	1.8	1 µg/mL (≈ 1.83 µM)	1.8	1	0.25 µg/mL (≈ 0.457 µM)	0.5	4 µg/mL (≈ 7.32 µM)	7.3	–	–	–	–	–	–	–
CC[C@@H](C)[C@@H](NC(=O)[C@H](NC(=O)[C@@H](CCCNC(=N)N)NC(=O)[C@H]1CCCN1C(=O)[C@@H](CCCCN)NC(=O)[C@@H](CCCCN)NC(=O)[C@@H](Cc1ccccc1)NC(=O)[C@@H](Cc1ccccc1)NC(=O)[C@@H](CCC(=O)O)NC(=O)[C@@H](CCCCN)NC(=O)[C@@H](C)NC(=O)[C@@H](CCCNC(=N)N)NC(=O)[C@@H](CCCCN)NC(=O)[C@@H](CCCCN)NC(=O)[C@H](NC(=O)[C@@H](CO)NC(=O)[C@@H](CCCCN)NC(=O)[C@@H](CCCCN)NC(=O)[C@@H](CC(C)C)NC(=O)[C@@H](CCCCN)NC(=O)[C@@H](CCCNC(=N)N)NC(=O)[C@@H](Cc1ccccc1)NC(=O)[C@@H](Cc1ccccc1)NC(=O)[C@@H](CCCCN)NC(=O)CNC(=O)CNC(=O)CN)C(C)C)C(C)C)C(=O)NCC(=O)N[C@@H](C(=O)N[C@H](CO)C(=O)N[C@@H](C(=O)N1CCC[C@@H]1C(=O)N[C@H](Cc1ccccc1)C(=O)O)[C@H](C)CC)C(C)C [D297] (HELM PEPTIDE1{G.G.G.[dK].[dF].[dF].[dR].[dK].[dL].[dK].[dK].[dS].[dV].[dK].[dK].[dR].[dA].[dK].[dE].[dF].[dF].[dK].[dK].[dP].[dR].[dV].[dI].G.[dV].[dS].[dI].[dP].[dF]}$$$$V2.0)	–	–	–	–	–	–	–	–	–	–	low	low	–	–	–	–	–
CC[C@H](C)[C@H](NC(=O)[C@@H](NC(=O)[C@H](CCCNC(=N)N)NC(=O)[C@@H]1CCCN1C(=O)[C@H](CCCCN)NC(=O)[C@H](CCCCN)NC(=O)[C@H](Cc1ccccc1)NC(=O)[C@H](Cc1ccccc1)NC(=O)[C@H](CCC(=O)O)NC(=O)[C@H](CCCCN)NC(=O)[C@H](C)NC(=O)[C@H](CCCNC(=N)N)NC(=O)[C@H](CCCCN)NC(=O)[C@H](CCCCN)NC(=O)[C@@H](NC(=O)[C@H](CO)NC(=O)[C@H](CCCCN)NC(=O)[C@H](CCCCN)NC(=O)[C@H](CC(C)C)NC(=O)[C@H](CCCCN)NC(=O)[C@H](CCCNC(=N)N)NC(=O)[C@H](Cc1ccccc1)NC(=O)[C@H](Cc1ccccc1)NC(=O)[C@H](CCCCN)NC(=O)CNC(=O)CNC(=O)CN)C(C)C)C(C)C)C(=O)NCC(=O)N[C@H](C(=O)N[C@@H](CO)C(=O)N[C@H](C(=O)N1CCC[C@H]1C(=O)N[C@@H](Cc1ccccc1)C(=O)O)[C@@H](C)CC)C(C)C [P297] (H-GGGKFFRKLKKSVKKRAKEFFKKPRVIGVSIPF-OH)	780 µg/mL	2 µg/mL (≈ 0.525 µM)	–	4 µg/mL (≈ 1.05 µM)	–	–	–	–	–	–	–	–	approximately 200 fold	0.14 to 0.28 µg/mL	0.14 to 0.28 µg/mL	~20 min	2 to 4 µg/mL
